The text below walks through data of patent publication US20070059299A1, “S-adenosyl methionine decarboxylase inhibition for the treatment of a herpes simplex virus infection” (Institut National de la Sante et de la Recherche Medicale …, priority 2002, published 2007).

For one data set, the system named is HSV. The conditions noted are these: McCormick and Newton, 1975; Tyms et al., 1979; cited from earlier work.
The test system of data set [1] is HSV-1 macroplaque strain (MP). The format is cell-based. The conditions noted are these: for less syncytia formed than in control infected without MGBG: no pre-treatment, 24 h. The protocol: HEp2 cells were grown as monolayers in Eagle's minimum essential medium (E-MEM) supplemented or not with 5% heat-inactivated foetal calf serum (FCS) and supplemented with 100 U/ml penicillin and 100 U/ml streptomycin. The cells were maintained at 37° C. under 5% CO2. The HSV-1 macroplaque strain (MP), obtained from B. Jacquemont (Lyon, France), was a gift of B. Roizman (Chicago, Ill., U.S.A.), and was used throughout this study. Viruses were grown in HEp2 cells.
HEp2 cells were grown in 6-well plates (˜10^6 cells/well) and infected just before confluence with a multiplicity of infection (m.o.i.) of 0.5 plaque-forming units (PFU) per cell in E-MEM in absence of FCS, except for some experiments. After adsorption of the virus for 1 h at 33° C. under 5% CO2, the medium containing the virus suspension was removed and the cells were washed with E-MEM, then incubated in E-MEM without FCS at 37° C. for different periods of times until harvest. Times post-infection (p.i.) were calculated from the time of addition of the virus suspension. HEp2 cells were exposed to MGBG treatment for different times. When cells were pre-treated with MGBG prior infection, MGBG was added to cell medium 6 h or 24 h prior infection until harvest. In non pre-treated cells, MGBG was added simultaneously with virus suspension, or 2 h, 4 h or 6 h latter. When cells were treated for more than 24 h, medium was replaced every 24 h with fresh medium containing the same concentration of MGBG.
Accordingly, the effect of inactivation of enzymes involved in polyamine biosynthesis upon HSV-1 infection inhibition was assessed. The HSV-1 MP strain was used throughout this study for its ability to induce the formation of large syncytia from infected cells. Therefore, it was possible to easily and quickly investigate the inhibition of viral replication at the level of syncytia formation.
To investigate the effect of the concentration of MGBG on viral infection, HEp2 cells were infected with 0.5 PFU of HSV-1 per cell in FCS free medium in which 10 μM to 300 μM MGBG was added from the adsorption step of the virus until the end of the experiment. After 24 h of infection, the formation of syncytia was observed, and the number of syncytia was estimated by counting using the optical microscope.
HEp2 cell were pre-treated with MGBG by incubation in FCS free medium containing 10 to 300 μM MGBG 6h to 24 h before infection. Then cells were infected as described above and MGBG was maintained in the medium until the end of the experiment.

The subject of data set [2] is foscarnet-resistant reference strain TP 2.5. The data set is described as follows: Antiviral susceptibility testing by ELISA on HEp-2 cells, strain TP 2.5. It counts as cell-based, HSV 1. The conditions noted are these: median of at least three assays, drugs diluted in μM, read-out: Susceptibility of strain TP2.5 (concentration causing 50% inhibition of viral replication, IC50), median. The protocol:
Three HSV 1 reference strains were tested : SC16 (acyclovir-susceptible reference strain; (Hill et al., 1975)), DM21 (acyclovir-resistant reference strain derived from SC16; (Efstathiou et al., 1989)) and TP 2.5 (foscarnet-resistant reference strain derived from SC16; (Larder and Darby, 1985)). Antiviral assays were performed in duplicate on HEp-2 cells seeded in 96 wells microplates. Dilutions of virus and drugs were prepared in E-MEM without FCS. Cells were first treated for 24 hours with MGBG using a series of 6 twofold serial dilutions from 12.5 to 400 μM. Infection was then achieved with 5 tenfold dilutions of cell-associated virus (10^−1 to 10^−5). Each dilution was incubated with a series of 6 concentrations of each antiviral drug (from 12.5 to 400 μM in twofold dilutions for MGBG, from 0.16 to 500 μM in fivefold dilutions for acyclovir and from 31 to 1000 μM in twofold dilutions for foscarnet). […] After incubation at 36° C. with 5% CO2 for 24 hours post-infection, medium was replaced with freshly prepared dilutions of MGBG. Viral multiplication was checked 24 hours afterwards by an ELISA (Morfin et al., 1999), using a rabbit monoclonal anti-HSV 1 antibody (BO 114, Dako) and a protein A peroxidase-conjugated (BioRad). The substrate, 2,2′-azino-di(3-ethyl-benzthiazoline) sulfonic acid (ABTS) diluted in ABTS buffer (Boehringer, Mannheim), was added to each well. After 30 min at room temperature, the plates were briefly agitated and optical densities were read at 405 nm with a multichannel spectrophotomoter (Titertek-Multiskan). Optical density values were used with the Biolise program (Life Sciences International) to calculate the concentration of the drug causing a 50% inhibition of viral replication (IC50) by logistic regression analysis.
The capacity of MGBG to preclude infection of three HSV-1 acyclovir and/or foscarnet resistant strains was tested. […] The ED values were determined.

The test system of data set [3] is HSV-1 clinical acyclovir or foscarnet resistant isolates.
The next data set relates to HEp2 cells. The data set is described as follows: Estimation of growth and viability of uninfected HEp2 cells (trypan blue counting). The format is cell-based. The protocol:
Uninfected HEp2 cells were grown in the absence (control) and the presence of 10 to 500 μM of MGBG for 24 h, 30 h and 48 h. Every 24 h, medium was replaced with fresh medium containing the same concentration of MGBG. At the time of harvesting, culture medium was collected from wells of untreated control cells and treated cells. Then cells from the monolayers were gently trypsinized and added to the corresponding previous cell culture medium. Total cells were collected by gentle centrifugation at 500×g and were resuspended in PBS containing 0.2% trypan blue. For each experiment, total cells, living cells and dead cells were counted.
The effect of MGBG on cell growth and viability was investigated. HEp2 cells were incubated in FCS free medium, in the presence of 10 μM to 500 μM of MGBG for 24 h, 30 h and 48 h. After harvesting, total cells, living cells and dead cells were counted.

Like-named read-outs stand apart in the source and are kept apart here. Where only a bound is given, the exact number is not on record here.

With `CC(C=NNC(=N)N)=NNC(=N)N` [MGBG, methylglyoxal bis(guanylhydrazone)], in the data set with HSV, the “effect on HSV replication” value is listed as “no effect”. For the same compound, in data set [1] (10 μM MGBG added simultaneously with virus, 0.5 PFU/cell, FCS free, 24 h of infection), the “size and number of syncytia” value was “the size but not the number of syncytia was reduced”. The “less syncytia formed than in control infected without MGBG” value in data set [1] (50 μM MGBG added with virus, 0.5 PFU/cell, FCS free) was 50%; in data set [1] (100 μM MGBG added with virus, 0.5 PFU/cell, FCS free), 95%; in data set [1] (200 μM MGBG added with virus, 0.5 PFU/cell, FCS free), “about 99%”. Moreover, the “viral replication (syncytia)” value in data set [1] (100 μM MGBG added 2 h after the beginning of infection) is “totally inhibited”; in data set [1] (100 μM MGBG added 4 h or 6 h after the adsorption step), “partially inhibited”. Besides, the “viral infection compared to cells infected without MGBG” value in data set [1] (100 μM MGBG alone added simultaneously with viral suspension) is on record as “strongly reduced”. Further, the “inhibition of viral infection in cells grown with 5% FCS compared with FCS free medium” value in data set [1] (5% FCS, different concentrations of MGBG) was “significantly less efficient”. Also, in data set [1] (HEp2 cells, 0.5 PFU of HSV-1 per cell), the “antiviral effect of MGBG and ACV in combination versus alone (syncytia formation)” value is on record as “potentiates the antiviral effect of ACV”. The “HSV-1 infection of HEp2 cells in the presence of MGBG” value in data set [1] (MGBG at micromolar concentration) is “inhibited”. In data set [1] (cells pre-treated for 6 and 24 h with at least 25 μM MGBG), the “inhibition of viral infection” value is listed as “more than 80%”. Besides, the “syncytia formed compared to cells infected in the absence of MGBG” value is 70% in data set [1] (cells pre-treated for 6 h with 10 μM MGBG, FCS free) and 36% in data set [1] (cells pre-treated for 24 h with 10 μM MGBG, FCS free). For the same compound, in data set [2], the IC50 was found to be 82 µM. Also, the “replication of HSV-1 clinical acyclovir or foscarnet resistant isolates” value in data set [3] is “inhibited replication”. The “percentage of dead cells of total cells” value in the data set on HEp2 cells (25 μM MGBG, 48 h) is listed as 10%; in the data set with HEp2 cells (500 μM MGBG, 24 h), 9%; in the data set with HEp2 cells (500 μM MGBG, 30 h), 24%; in the data set on HEp2 cells (less than 500 μM MGBG for 24 h and 30 h, less than 25 μM MGBG for 48 h) it was at most 5%. Besides, the cell growth entry in the data set with HEp2 cells (500 μM MGBG, FCS free) is “did not grow anymore”. Also, the “growth rate of cells compared to control cells grown without MGBG” value in the data set on HEp2 cells (24 h and 30 h, less than 200 μM MGBG, FCS free) is reported as “no drastic difference”.
